In patent US8389739B1, “Modulators of retinoid-related orphan receptor gamma” (Orphagen Pharmaceuticals, priority 2006, dated 2013):
“And” between values parts separate entries of the source, which are not always exact repeats. Equal values may be shown once. “Also recorded” adds a separate entry of the source.

Columns and labels:
liver triglyceridemia = conditions: mice lacking the LXRα and LXRβ receptors; cited from earlier work
[1] = Pharmacokinetics of OR-1050 in CD-1 mice, oral gavage; type: in vivo
Description: FIG. 12B. Bioavailability of OR-1050. OR-1050 was dosed in CD-1 mice at […] in HRC-6, a proprietary formulation that is commercially available from Pharmatek (San Diego, Calif.). Blood samples from triplicate animals were tested for levels of OR-1050 at multiple time points.
Pharmacokinetics of OR-1050 in CD-1 mice was analyzed at independent bioanalytical laboratory. Male CD-1 mice were treated via oral gavage with OR-1050 at 5 mg/kg in HRC-6. Blood was collected via retro-orbital puncture in tubes containing sodium heparin anticoagulant at 0, 5, 15, and 30 min, and at 1, 2, 4, 6, 8 and 24 hr after oral administration. The concentration of OR-1050 in plasma was determined using an HPLC/MS/MS method.

CIA = assay: Collagen-induced arthritis (CIA) in DBA/1 mice; type: in vivo; conditions: 100 mg/kg/day OR-1050 p.o. in HRC-6; AUC day 24 to 48, p<0.09
TH-17 cells = assay: TH-17 cell frequency in lymph nodes of PLP-immunized SJL/J mice; type: in vivo; conditions: 100 mg/kg OR-1050 in HRC-6 daily, day 9 after PLP immunization; fraction of total CD4+ cells
Description: FIGS. 11D-F SJL/J mice were immunized with 75 μg PLP139-151 (Day 0). Osmotic pumps delivering vehicle or OR-1050 ([…]) were inserted at Days 3 and 4. Day of onset (FIG. 11E) compares the first day when EAE severity is 1 or higher. The ratio of Th-17 cells (CD4^+CD8^−IL17^+) to […] was analyzed in a separate study (F FIG. 11F) at day 9 after immunization with PLP where mice had been dosed daily with OR-1050 (100 mg/kg in HRC-6) since […]. Statistics (panels A, B, D, F) were performed by Student's t-test. *, P<0.05; #, P<0.01 (mean±sem, n=7-10) or by the Mann-Whitney rank order test (FIGS. 11C, E, median values shown).
Since OR-1050 inhibits TH-17 cells in ex vivo culture, we also investigated whether TH-17 cell frequency was affected in OR-1050-treated animals. SJL/J female mice (n=9/group) were treated with 100 mg/kg OR-1050 in HRC-6 beginning two days before immunization with PLP (as described above) and continuing until 8 days after immunization. Animals were sacrificed on day 9, and TH-17 cells analyzed from pooled axillary, brachial, and inguinal lymph nodes from each animal. We found a 35% reduction in TH-17 frequency in lymph nodes of SJL/J mice (FIG. 11F) as a fraction of the total CD4^+ cell population. The change in TH-17 frequency with OR-1050 treatment was statistically significant.

EAE = EAE model, SJL/J mice immunized with PLP139-151, osmotic pump; type: in vivo
thymocytes = assay: Thymus weight and thymocyte subpopulations after oral dosing in C57BL/6 mice; type: in vivo; conditions: mouse, in vivo, 100 mg/kg
Description: In addition, the total number and the fraction of the major thymocyte subpopulations including CD4^+CD8^+ (DP), CD4^+CD8^- (SP4^+) and CD4^-CD8^+ (SP8^+) were measured by cell surface staining followed by FACS analysis. […] The volume of cells was adjusted to 8 mls. Debris from the thymus was allowed to settle, and a 200 μl aliquot of cells was incubated with fluorescent antibodies to CD4 and CD8 for 15 minutes at room temperature. […] Before analytical flow cytometry was carried out (FACS Calibur, Becton Dickinson), Caltag counting beads (from Invitrogen) were added to allow absolute quantitation of cell number. Thymus subpopulations were determined after gating for live cells. […] Dexamethasone reproducibly induces rapid apoptosis of DP thymocytes and reduction of thymic mass ([…], Drupt et al. 2000; Zubkova, Mostowski et al. 2005).

[2] = test system: IL-17 release from CD4+ naïve murine T cells; assay: IL-17 release into culture medium during TH-17 differentiation (ELISA); type: cell-based, mouse; conditions: 3 μM, in the presence or absence of 3 μM OR-12872, day 4 (FIG. 10)
Description: FIG. 10. IL-17 release into culture medium was measured four days after induction of TH-17 differentiation in CD4^+ naïve murine T cells, following the methods of FIG. 7. Each antagonist (OR-885, OR-1050, OR-13571, and OR-2161) was incubated in the cultures at 3 μM, in the presence or absence of OR-12872, also at 3 μM. On day 4, culture supernatants were saved and IL-17 measured by ELISA.
Purified CD4^+CD62L^+ T cells were plated in 24-well plates with 2−4×10^5 cells in 700 ul volume of RPMI 1640 media containing 10% heat-inactivated FCS, 100 IU penicillin, 100 μg/ml streptomycin, 1× non-essential amino acids, 1 mM pyruvate, 2 mM glutamine, and 50 μM […] (Veldhoen, Hocking et al. 2006). T cells were stimulated with exogenous cytokines and anti-CD3/anti-CD28 conjugated Dynabeads (Dynal Biotech, Oslo) at a 1:1 ratio of beads to cells. Exogenous cytokines used were: 4 ng/ml TGF-β, 20 ng/ml of IL-6, or 10 ng/ml IL-12. RORγ agonist and antagonist ligands, dissolved in DMSO, were added directly to cell cultures, to a final concentration of 0.01%. Cytokines and RORγ ligands were added immediately after cell plating.
ELISA kits for mouse IL-17 and human IL-17 were from eBioscience (San Diego, Calif.). ELISA assays were performed following the manufacturer's protocol. Certain samples were diluted 20-fold to avoid maximization of enzymatic signals. […]

O=S(=O)(c1ccccc1)N(CC(F)(F)F)c1ccc(C(O)(C(F)(F)F)C(F)(F)F)cc1 [Compound T0901317, N-(2,2,2-Trifluoro-ethyl)-N-[4-(2,2,2-trifluoro-1-hydroxy-1-trifluoromethyl-ethyl)-phenyl]-benzenesulfonamide, reference compound]
liver triglyceridemia (liver triglyceridemia): no effect on liver triglyceridemia

CCN(c1ccc(C(O)(C(F)(F)F)C(F)(F)F)cc1)S(=O)(=O)c1ccc([N+](=O)[O-])cc1 [OR-1050, N-Ethyl-4-nitro-N-[4-(2,2,2-trifluoro-1-hydroxy-1-trifluoromethyl-ethyl)-phenyl]-benzenesulfonamide]
blood levels suggested for a higher dosage ([1]; extrapolated to 50 mg/kg): 1 μg/ml and ~2 μM | oral bioavailability, in words ([1]; mouse, in vivo, po): modest bioavailability; also recorded: orally-bioavailable; also recorded: orally bioavailable | disease course of CIA (hind limb clinical scores) (CIA): partly suppressed | reduction in TH-17 frequency in lymph nodes (TH-17 cells): 35% | paralytic severity, in words (EAE; FIG. 11D): reduced paralytic severity | day of onset, in words (EAE; FIG. 11E): significantly delayed | area under the severity curve (mean±sem) (EAE; estimated 30 mg/kg daily, vehicle 14.5±1.6, p<0.01): 5.3±2.7 | Frequency of DP (% of total cells) (thymocytes): 56.7 ± 3.1% | Total cells per spleen (×10^−6) DP (thymocytes): 61.5 ×10^−6 | Total cells per spleen (×10^−6) SP4 (thymocytes): 8.1 ×10^−6 | Total cells per spleen (×10^−6) SP8 (thymocytes): 2.5 ×10^−6

COC(C)CCC(C)C1CCC2C3CC(O)C4CC(O)CCC4(C)C3CCC12C (stereo not shown) [OR-12872, 17-(4-Methoxy-1-methyl-pentyl)-10,13-dimethyl-hexadecahydro-cyclopenta[a]phenanthrene-3,6-diol]
IL-17 release during TH-17 differentiation [2]: reverses the effect of each of the antagonists
